Blank lines part the entries; values can stand above or below the compound they belong to.
How the values were obtained:
[1] = molecular target: RAC-alpha serine/threonine-protein kinase (Homo sapiens) (UniProt P31749); assay: Inhibition of human recombinant AKT1 at 500 nM related to control ULK1
[2] = molecular target: Tyrosine-protein kinase Lck (Homo sapiens) (UniProt P06239); assay: Inhibition of human recombinant LCK at 500 nM in presence of ATP by radiometric assay relative to control
[3] = molecular target: Serine/threonine-protein kinase MAK (Homo sapiens) (UniProt P20794); assay: Inhibition of human recombinant MAK at 500 nM in presence of ATP by radiometric assay relative to control
Chain of Serine/threonine-protein kinase MAK (Homo sapiens) (P20794 whole entry, looked up): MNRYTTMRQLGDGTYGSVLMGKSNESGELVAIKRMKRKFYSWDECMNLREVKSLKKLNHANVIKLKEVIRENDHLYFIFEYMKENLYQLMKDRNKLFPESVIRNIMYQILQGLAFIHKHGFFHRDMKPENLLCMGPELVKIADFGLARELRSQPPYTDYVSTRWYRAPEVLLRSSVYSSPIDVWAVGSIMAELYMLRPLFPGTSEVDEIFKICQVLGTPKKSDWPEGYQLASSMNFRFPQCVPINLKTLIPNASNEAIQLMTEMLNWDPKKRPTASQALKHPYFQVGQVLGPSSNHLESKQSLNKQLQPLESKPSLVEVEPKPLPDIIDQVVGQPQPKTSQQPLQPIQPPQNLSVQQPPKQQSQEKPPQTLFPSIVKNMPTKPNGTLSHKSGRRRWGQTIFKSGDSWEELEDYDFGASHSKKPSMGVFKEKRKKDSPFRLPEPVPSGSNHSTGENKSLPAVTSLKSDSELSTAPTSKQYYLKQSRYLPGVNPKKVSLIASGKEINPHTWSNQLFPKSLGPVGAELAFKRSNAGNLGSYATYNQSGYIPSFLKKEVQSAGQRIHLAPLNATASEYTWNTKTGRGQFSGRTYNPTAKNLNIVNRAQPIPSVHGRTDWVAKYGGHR

[4] = molecular target: T1, Ephrin type-B receptor 2 (Homo sapiens) (UniProt P29323); assay: Inhibition of human recombinant EphB2 at 15 nM related to control ULK1
T1 sequence (whole entry): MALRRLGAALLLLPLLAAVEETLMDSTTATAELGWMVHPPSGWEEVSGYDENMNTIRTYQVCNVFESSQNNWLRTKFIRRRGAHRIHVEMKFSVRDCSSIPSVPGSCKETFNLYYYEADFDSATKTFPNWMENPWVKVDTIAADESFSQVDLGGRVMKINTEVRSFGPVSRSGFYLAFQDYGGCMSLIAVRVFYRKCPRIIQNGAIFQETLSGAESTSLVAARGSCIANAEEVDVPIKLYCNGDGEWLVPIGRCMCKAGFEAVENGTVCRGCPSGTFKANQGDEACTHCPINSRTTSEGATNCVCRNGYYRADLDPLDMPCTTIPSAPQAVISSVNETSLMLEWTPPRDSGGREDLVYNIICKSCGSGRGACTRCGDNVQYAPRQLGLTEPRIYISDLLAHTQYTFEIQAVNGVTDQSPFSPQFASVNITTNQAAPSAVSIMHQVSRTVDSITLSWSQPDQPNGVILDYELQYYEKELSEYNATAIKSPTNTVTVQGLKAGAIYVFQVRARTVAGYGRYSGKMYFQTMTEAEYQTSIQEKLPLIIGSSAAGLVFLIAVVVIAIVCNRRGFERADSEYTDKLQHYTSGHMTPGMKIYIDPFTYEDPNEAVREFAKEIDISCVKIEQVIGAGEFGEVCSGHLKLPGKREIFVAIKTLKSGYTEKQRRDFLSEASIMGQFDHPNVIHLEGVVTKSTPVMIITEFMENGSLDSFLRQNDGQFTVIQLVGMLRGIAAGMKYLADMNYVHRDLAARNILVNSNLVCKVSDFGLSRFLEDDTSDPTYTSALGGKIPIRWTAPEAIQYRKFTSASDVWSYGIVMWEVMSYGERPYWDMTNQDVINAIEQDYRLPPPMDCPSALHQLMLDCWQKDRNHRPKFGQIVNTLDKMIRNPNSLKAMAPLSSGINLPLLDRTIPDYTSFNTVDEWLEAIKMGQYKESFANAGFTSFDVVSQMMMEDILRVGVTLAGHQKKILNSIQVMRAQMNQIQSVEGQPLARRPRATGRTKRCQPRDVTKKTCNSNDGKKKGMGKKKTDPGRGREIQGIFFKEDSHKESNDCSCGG

[5] = molecular target: Protein kinase C delta type (Homo sapiens) (UniProt Q05655); assay: Inhibition of human recombinant PKCd at 15 nM related to control ULK1
Chain of Protein kinase C delta type (Homo sapiens) (Q05655 whole entry, looked up): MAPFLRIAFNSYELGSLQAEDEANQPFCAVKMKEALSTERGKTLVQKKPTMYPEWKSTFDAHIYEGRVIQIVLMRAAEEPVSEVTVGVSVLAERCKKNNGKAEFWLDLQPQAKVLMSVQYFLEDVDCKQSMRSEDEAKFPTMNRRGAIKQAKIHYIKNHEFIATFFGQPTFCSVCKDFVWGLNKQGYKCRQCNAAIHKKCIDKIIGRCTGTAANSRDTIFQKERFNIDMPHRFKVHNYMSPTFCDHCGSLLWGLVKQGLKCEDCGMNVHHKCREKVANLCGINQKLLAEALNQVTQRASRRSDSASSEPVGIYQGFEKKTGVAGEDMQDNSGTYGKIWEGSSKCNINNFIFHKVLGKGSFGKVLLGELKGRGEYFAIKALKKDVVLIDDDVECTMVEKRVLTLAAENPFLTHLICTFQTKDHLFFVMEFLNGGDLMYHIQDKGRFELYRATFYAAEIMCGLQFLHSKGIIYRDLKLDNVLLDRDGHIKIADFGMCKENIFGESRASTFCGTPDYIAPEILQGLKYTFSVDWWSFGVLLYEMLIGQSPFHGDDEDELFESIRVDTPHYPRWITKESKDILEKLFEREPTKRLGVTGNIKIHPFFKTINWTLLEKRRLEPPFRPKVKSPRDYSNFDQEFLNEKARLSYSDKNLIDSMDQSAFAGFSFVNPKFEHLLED

[6] = molecular target: Dual specificity tyrosine-phosphorylation-regulated kinase 1B (Homo sapiens) (UniProt Q9Y463); assay: Inhibition of human recombinant DYRK1B at 40 nM related to control ULK1
Chain of Dual specificity tyrosine-phosphorylation-regulated kinase 1B (Homo sapiens) (Q9Y463 whole entry, looked up): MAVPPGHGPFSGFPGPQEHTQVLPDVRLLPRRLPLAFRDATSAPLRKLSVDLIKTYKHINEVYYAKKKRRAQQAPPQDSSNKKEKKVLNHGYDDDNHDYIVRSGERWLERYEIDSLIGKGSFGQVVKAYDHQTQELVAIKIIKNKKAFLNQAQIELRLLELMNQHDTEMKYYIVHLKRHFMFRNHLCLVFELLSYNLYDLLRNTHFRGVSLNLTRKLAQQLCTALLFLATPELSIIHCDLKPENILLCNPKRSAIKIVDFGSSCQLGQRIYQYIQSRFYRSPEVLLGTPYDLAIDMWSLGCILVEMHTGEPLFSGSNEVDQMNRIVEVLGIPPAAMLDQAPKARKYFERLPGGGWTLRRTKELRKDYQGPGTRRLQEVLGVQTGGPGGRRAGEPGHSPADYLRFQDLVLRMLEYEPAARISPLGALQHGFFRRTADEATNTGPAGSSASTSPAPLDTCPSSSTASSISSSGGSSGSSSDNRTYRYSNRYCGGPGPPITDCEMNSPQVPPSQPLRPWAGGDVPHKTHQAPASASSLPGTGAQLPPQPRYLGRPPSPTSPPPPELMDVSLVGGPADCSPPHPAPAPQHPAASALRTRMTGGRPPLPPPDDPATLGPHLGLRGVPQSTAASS

[7] = molecular target: T2, Serine/threonine-protein kinase PLK4 (Homo sapiens) (UniProt O00444); assay: Inhibition of human recombinant PLK4 at 40 nM related to control ULK1
T2 sequence (whole entry): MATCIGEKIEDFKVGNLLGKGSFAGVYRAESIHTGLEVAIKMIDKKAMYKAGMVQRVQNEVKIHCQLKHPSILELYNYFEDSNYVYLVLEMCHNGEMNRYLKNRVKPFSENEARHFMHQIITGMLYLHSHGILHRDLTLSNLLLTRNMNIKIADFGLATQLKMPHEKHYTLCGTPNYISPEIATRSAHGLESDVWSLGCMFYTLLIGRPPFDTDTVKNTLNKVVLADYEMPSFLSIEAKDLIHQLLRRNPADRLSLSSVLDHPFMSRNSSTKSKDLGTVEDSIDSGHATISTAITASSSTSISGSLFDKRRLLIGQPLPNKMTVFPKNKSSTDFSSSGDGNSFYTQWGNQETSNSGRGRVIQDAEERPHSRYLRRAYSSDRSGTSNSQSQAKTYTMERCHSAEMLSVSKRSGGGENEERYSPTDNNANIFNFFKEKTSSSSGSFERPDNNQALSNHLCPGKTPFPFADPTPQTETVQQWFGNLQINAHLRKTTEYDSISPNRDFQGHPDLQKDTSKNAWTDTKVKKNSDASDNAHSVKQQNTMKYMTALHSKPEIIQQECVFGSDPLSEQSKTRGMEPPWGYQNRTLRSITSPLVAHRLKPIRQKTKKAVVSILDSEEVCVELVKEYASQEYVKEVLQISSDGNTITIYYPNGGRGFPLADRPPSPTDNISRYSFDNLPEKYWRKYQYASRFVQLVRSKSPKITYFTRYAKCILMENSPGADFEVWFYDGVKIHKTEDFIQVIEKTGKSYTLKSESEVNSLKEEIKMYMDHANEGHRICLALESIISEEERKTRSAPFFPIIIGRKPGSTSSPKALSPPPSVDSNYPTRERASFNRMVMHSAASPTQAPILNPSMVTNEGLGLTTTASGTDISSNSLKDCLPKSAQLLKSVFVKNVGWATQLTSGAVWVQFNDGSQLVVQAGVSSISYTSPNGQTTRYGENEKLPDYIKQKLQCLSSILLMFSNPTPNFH

[8] = molecular target: Protein kinase C iota type (Homo sapiens) (UniProt P41743); assay: Inhibition of human recombinant PKCi at 40 nM in presence of ATP by radiometric assay relative to control
Chain of Protein kinase C iota type (Homo sapiens) (P41743 whole entry, looked up): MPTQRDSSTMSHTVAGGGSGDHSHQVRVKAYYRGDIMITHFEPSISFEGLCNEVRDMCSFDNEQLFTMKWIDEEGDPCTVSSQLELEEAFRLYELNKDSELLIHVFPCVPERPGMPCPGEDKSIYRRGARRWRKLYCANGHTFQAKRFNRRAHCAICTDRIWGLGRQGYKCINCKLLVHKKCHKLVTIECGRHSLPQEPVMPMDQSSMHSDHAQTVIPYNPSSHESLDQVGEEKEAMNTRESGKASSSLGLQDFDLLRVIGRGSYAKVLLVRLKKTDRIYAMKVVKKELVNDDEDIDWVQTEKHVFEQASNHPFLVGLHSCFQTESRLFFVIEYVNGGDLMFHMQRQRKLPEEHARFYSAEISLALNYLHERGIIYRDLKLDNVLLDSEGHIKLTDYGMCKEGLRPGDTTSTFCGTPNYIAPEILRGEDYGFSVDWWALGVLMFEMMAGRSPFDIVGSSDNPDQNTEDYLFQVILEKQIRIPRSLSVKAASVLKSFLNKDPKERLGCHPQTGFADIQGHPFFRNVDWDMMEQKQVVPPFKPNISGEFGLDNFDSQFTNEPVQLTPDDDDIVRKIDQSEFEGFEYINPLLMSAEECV

[9] = molecular target: Rho-associated protein kinase 1 (Homo sapiens) (UniProt Q13464); assay: Inhibition of human recombinant ROCK1 at 40 nM in presence of ATP by radiometric assay relative to control
Chain of Rho-associated protein kinase 1 (Homo sapiens) (Q13464 2-1354 limits assumed): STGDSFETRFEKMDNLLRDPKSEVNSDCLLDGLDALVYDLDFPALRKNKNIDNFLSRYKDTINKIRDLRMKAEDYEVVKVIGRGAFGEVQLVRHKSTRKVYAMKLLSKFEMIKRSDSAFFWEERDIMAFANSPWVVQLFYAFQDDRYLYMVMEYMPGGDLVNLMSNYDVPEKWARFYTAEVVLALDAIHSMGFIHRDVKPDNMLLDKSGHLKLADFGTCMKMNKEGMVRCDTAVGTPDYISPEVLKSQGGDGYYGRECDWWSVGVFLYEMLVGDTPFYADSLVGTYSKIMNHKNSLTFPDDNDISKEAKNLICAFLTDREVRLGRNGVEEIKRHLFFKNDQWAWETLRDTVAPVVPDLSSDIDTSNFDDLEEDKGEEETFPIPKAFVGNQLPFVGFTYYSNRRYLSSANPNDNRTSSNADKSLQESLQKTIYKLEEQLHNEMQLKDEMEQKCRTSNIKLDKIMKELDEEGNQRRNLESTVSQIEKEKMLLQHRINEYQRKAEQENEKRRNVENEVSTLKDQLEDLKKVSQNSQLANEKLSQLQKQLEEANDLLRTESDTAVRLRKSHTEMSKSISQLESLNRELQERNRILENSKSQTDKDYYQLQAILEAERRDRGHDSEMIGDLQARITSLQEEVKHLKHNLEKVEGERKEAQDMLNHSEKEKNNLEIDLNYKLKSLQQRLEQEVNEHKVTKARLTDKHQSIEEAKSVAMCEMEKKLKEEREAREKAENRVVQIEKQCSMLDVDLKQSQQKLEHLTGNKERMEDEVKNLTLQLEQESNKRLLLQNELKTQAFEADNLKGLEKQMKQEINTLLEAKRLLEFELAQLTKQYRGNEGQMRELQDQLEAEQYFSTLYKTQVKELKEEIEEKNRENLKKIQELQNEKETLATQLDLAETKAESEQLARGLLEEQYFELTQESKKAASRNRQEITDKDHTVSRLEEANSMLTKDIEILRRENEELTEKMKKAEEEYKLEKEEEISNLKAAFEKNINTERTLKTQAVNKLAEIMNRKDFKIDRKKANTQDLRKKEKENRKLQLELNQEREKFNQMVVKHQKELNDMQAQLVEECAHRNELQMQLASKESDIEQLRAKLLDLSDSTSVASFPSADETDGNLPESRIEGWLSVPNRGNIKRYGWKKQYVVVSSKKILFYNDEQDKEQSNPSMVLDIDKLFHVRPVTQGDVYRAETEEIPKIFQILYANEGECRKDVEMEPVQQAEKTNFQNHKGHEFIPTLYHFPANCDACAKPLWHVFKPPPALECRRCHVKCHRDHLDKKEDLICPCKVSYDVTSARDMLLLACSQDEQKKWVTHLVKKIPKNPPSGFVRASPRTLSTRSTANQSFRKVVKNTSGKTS

[10] = molecular target: Vascular endothelial growth factor receptor 1 (Homo sapiens) (UniProt P17948); assay: Inhibition of human recombinant FLT1 at 40 nM related to control ULK1

Chain of Tyrosine-protein kinase Lck (Homo sapiens) (P06239 2-509 limits assumed): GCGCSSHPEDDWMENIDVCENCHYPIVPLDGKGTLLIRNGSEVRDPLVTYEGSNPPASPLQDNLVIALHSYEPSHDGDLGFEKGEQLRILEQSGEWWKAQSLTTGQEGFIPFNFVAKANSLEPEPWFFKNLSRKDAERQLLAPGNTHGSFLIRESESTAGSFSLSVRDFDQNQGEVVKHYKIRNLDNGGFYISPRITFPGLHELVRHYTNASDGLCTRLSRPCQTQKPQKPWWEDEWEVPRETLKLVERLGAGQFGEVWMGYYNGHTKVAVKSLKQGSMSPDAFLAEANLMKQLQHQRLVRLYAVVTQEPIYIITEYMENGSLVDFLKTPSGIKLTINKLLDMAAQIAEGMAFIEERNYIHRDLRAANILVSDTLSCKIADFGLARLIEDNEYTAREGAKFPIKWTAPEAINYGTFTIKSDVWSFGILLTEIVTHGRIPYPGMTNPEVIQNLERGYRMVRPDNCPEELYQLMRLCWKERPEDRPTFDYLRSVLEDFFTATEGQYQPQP
Chain of RAC-alpha serine/threonine-protein kinase (Homo sapiens) (P31749 whole entry): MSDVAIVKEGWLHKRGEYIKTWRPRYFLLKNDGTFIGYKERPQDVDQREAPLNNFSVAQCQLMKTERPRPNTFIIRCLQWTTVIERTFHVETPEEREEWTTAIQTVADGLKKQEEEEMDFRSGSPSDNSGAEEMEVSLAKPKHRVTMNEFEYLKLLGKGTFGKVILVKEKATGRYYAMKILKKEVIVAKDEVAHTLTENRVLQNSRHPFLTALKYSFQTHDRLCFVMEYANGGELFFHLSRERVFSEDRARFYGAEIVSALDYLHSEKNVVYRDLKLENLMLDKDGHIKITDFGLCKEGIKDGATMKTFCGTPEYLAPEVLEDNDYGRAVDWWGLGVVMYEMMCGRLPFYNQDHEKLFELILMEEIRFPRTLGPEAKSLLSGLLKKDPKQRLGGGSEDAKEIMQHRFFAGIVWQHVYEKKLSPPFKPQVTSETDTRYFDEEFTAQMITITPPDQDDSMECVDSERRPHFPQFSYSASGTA

fold change (FC) [1]: 0
inhibition [2]: 13%
inhibition [3]: 36%
Structure (SMILES): CNC(=O)c1ccccc1Oc1nc(Nc2cc(OC)c(OC)c(OC)c2)ncc1Br

fold change (FC) [4]: 0.08
fold change (FC) [5]: 0
Structure (SMILES): CC(C)[C@H](NC(=O)c1cc(-c2cnn3cc(-c4ccc(OCCN5CCCCC5)cc4)cnc23)cs1)C(F)(F)F

fold change (FC) [6]: 0.42
fold change (FC) [7]: 0.1
inhibition [8]: 0%
inhibition [9]: 0%
fold change (FC) [10]: 0.25
Structure (SMILES): O=C(N[C@@H](C1CC1)C(F)(F)F)c1cc(-c2cnn3cc(-c4ccc(F)cc4)cnc23)cs1

Reference: ChEMBL document CHEMBL5653631, “A Potent and Selective ULK1 Inhibitor Suppresses Autophagy and Sensitizes Cancer Cells to Nutrient Stress” (iScience, 2018)
